Results from patent publication US9839642B2, “Beta-tetrazolyl-propionic acids as metallo-beta-lactamase inhibitors” (priority 2014, dated 2017).
pIC50: −log10 of the molar value. Like-named read-outs stand apart in the source and are kept apart here.

Key:
NDM-1 = NDM-1 (Klebsiella pneumoniae, UniProt C7C422); assay: Enzyme activity: determination of IC50, fluorescence assay with CCF2-FA substrate; assay type: biochemical; settings: CCF2-FA 1.25 μM, 2 hours at 25° C., read-out: NDM1 IC50
Outline: (§1)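 Read-out: fluorescence, ex 405 nm / em 460 nm, after 2 h at 25° C with 1.25 μM CCF2-FA. Buffer 100 mM KH2PO4 pH 7, 0.005% Tween-20, 10 μM ZnSO4; enzyme 1 pM NDM-1, 2 pM IMP-1, 30 pM VIM-1. IC50 by 4-parameter fit.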

IMP-1 = IMP-1 (Serratia marcescens, UniProt P52699); assay: as above; assay type: biochemical; settings: CCF2-FA 1.25 μM, 2 hours at 25° C., read-out: IMP1 IC50
Chain of IMP-1 (P52699 19-246, looked up, species assumed): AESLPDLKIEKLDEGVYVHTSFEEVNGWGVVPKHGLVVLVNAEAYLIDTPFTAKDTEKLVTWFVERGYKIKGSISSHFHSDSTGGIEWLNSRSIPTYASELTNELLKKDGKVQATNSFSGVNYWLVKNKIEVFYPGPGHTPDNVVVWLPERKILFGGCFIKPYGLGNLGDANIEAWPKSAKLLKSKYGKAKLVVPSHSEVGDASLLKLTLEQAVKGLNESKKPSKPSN
Outline: as §1

VIM-1 = VIM-1 (Pseudomonas aeruginosa, UniProt A0A0F7KYQ8); assay: as above; assay type: biochemical; settings: CCF2-FA 1.25 μM, 2 hours at 25° C., read-out: VIM1 IC50
Outline: as §1

[1] = system: Klebsiella pneumoniae expressing VIM-1 (IHMA599644); assay: Antibiotic potentiation activity: synergistic concentration (MITC95) with imipenem, growth by OD600; assay type: cell-based
Outline: (§2)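 Strains grown overnight at 35° C, resuspended in saline, diluted 1:100 into 1.1×CAMHB; imipenem at 1 μg/ml or 4 μg/ml with test compound 200 μM to 0.195 μM. Incubated 22 hours to 24 hours at 35° C, OD600 read; MITC95 is lowest compound concentration inhibiting 95% of growth.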

[2] = system: Serratia marcescens expressing IMP-1 (CL5741); assay: as above; assay type: cell-based
Outline: as §2

[3] = system: Escherichia coli expressing NDM-1 (CLB30016); assay: as above; assay type: cell-based
Outline: as §2

[4] = 95% inhibition of bacterial growth, strain IHMA599644
[5] = 95% inhibition of bacterial growth, strain CL5741
[6] = 95% inhibition of bacterial growth, strain CLB30016
[7] = K. pneumoniae IHMA599644 (VIM-1), 95% inhibition of growth
[8] = S. marcescens CL5741 (IMP-1), 95% inhibition of growth
[9] = E. coli CLB30016 (NDM-1), 95% inhibition of growth

Chain of NDM-1 (C7C422 29-270, looked up, species assumed): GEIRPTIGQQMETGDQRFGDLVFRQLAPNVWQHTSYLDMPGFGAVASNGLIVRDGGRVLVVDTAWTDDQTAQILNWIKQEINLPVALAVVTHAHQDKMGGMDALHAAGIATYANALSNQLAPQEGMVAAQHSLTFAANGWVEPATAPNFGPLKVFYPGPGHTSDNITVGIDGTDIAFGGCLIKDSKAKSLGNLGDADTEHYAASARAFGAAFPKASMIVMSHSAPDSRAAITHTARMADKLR

| Structure (SMILES) | pIC50 (NDM-1; enzyme 1 pM) | pIC50 (IMP-1; enzyme 2 pM) | pIC50 (VIM-1; enzyme 30 pM) | VIM1 KP599644 MITC95 [1, 4] | IMP1 SM5741 MITC95 [2, 5] | NDM1 EC30016 MITC95 [3, 6] | pIC50 (NDM-1; NDM-1 enzyme 1 pM) | pIC50 (IMP-1; IMP-1 enzyme 2 pM) | pIC50 (VIM-1; VIM-1 enzyme 30 pM) | VIM1 KP599644 MITC95 [1, 7] | IMP1 SM5741 MITC95 [2, 8] | NDM1 EC30016 MITC95 [3, 9] |
| --- | --- | --- | --- | --- | --- | --- | --- | --- | --- | --- | --- | --- |
| CCC[C@H](C(=O)O)[C@H](Cc1ccc(NCCN2CCCCC2)cc1)c1nn[nH]n1 [Example 217, (2S)-2-[(1S)-2-{4-[(2-piperidin-1-ylethyl)amino]phenyl}-1-(2H-tetrazol-5-yl)ethyl]pentanoic acid] | 6.30 | 5.62 | 7.42 | 50 µM | 50 µM | 12.5 µM | – | – | – | – | – | – |
| CCC[C@H](C(=O)O)[C@H](Cc1ccc(NCC(=O)N(C)C)cc1)c1nn[nH]n1 [Example 218, (2S)-2-[(1S)-2-(4-{[2-(dimethylamino)-2-oxoethyl]amino}phenyl)-1-(2H-tetrazol-5-yl)ethyl]pentanoic acid] | 7.40 | 6.34 | 7.68 | 50 µM | 25 µM | 31 µM | – | – | – | – | – | – |
| CCC[C@H](C(=O)O)[C@H](Cc1ccc(NCCN2CCN(C(C)C)CC2)cc1)c1nn[nH]n1 [Example 219, (2S)-2-[(1S)-2-[4-({2-[4-(1-methylethyl)piperazin-1-yl]ethyl}amino)phenyl]-1-(2H-tetrazol-5-yl)ethyl]pentanoic acid] | 6.68 | 6.00 | 7.03 | 100 µM | 25 µM | 25 µM | – | – | – | – | – | – |
| CCC[C@H](C(=O)O)[C@H](Cc1ccc(NCCN2CCCC(O)C2)cc1)c1nn[nH]n1 (stereo partly drawn) [Example 220, (2S)-2-[(1S)-2-(4-{[2-(3-hydroxypiperidin-1-yl)ethyl]amino}phenyl)-1-(2H-tetrazol-5-yl)ethyl]pentanoic acid] | 6.44 | 5.80 | 7.12 | 50 µM | 50 µM | 25 µM | – | – | – | – | – | – |
| CCC[C@H](C(=O)O)[C@H](Cc1ccc(NCCn2ccnn2)cc1)c1nn[nH]n1 [Example 221, (2S)-2-[(1S)-1-(2H-tetrazol-5-yl)-2-(4-{[2-(1H-1,2,3-triazol-1-yl)ethyl]amino}phenyl)ethyl]pentanoic acid] | 7.08 | 6.66 | 7.57 | 100 µM | 16 µM | 31 µM | – | – | – | – | – | – |
| CCC[C@H](C(=O)O)[C@H](Cc1ccc(NC(C)CN)cc1)c1nn[nH]n1 (stereo partly drawn) [Example 222, (2S)-2-[(1S)-2-{4-[(2-amino-1-methylethyl)amino]phenyl}-1-(2H-tetrazol-5-yl)ethyl]pentanoic acid] | 6.15 | 5.77 | 8.04 | 25 µM | 25 µM | 18.8 µM | – | – | – | – | – | – |
| CCC[C@H](C(=O)O)[C@H](Cc1ccc(NC2CCCN(CCC)C2)cc1)c1nn[nH]n1 (stereo partly drawn) [Example 223, (2S)-2-[(1S)-2-{4-[(1-propylpiperidin-3-yl)amino]phenyl}-1-(2H-tetrazol-5-yl)ethyl]pentanoic acid] | 6.30 | 5.89 | 7.15 | 75 µM | 25 µM | 38 µM | – | – | – | – | – | – |
| CCC[C@H](C(=O)O)[C@H](Cc1ccc(NC(C)CN(C)C)cc1)c1nn[nH]n1 (stereo partly drawn) [Example 224, (2S)-2-[(1S)-2-(4-{[2-(dimethylamino)-1-methylethyl]amino}phenyl)-1-(2H-tetrazol-5-yl)ethyl]pentanoic acid] | 6.00 | 5.96 | 7.09 | 50 µM | 18.8 µM | 25 µM | – | – | – | – | – | – |
| CCC[C@H](C(=O)O)[C@H](Cc1ccc(N2CCN(CCO)CC2)cc1)c1nn[nH]n1 [Example 225, (2S)-2-[(1S)-2-{4-[4-(2-hydroxyethyl)piperazin-1-yl]phenyl}-1-(2H-tetrazol-5-yl)ethyl]pentanoic acid] | 6.96 | 6.55 | 7.18 | 50 µM | 12.5 µM | 25 µM | – | – | – | – | – | – |
| CCC[C@H](C(=O)O)[C@H](Cc1ccc(N2CCN(c3ccccc3)CC2)cc1)c1nn[nH]n1 [Example 226, (2S)-2-[(1S)-2-[4-(4-phenylpiperazin-1-yl)phenyl]-1-(2H-tetrazol-5-yl)ethyl]pentanoic acid] | 7.70 | 7.41 | 7.18 | >200 µM | 3.1 µM | 38 µM | – | – | – | – | – | – |
| CCC[C@H](C(=O)O)[C@H](Cc1ccc(N2CCN(c3ccncc3)CC2)cc1)c1nn[nH]n1 [Example 227, (2S)-2-[(1S)-2-[4-(4-pyridin-4-ylpiperazin-1-yl)phenyl]-1-(2H-tetrazol-5-yl)ethyl]pentanoic acid] | 7.27 | 6.42 | 7.29 | 75 µM | 12.5 µM | 16 µM | – | – | – | – | – | – |
| CCC[C@H](C(=O)O)[C@H](Cc1ccc(N2CCN(C(C)=O)CC2)cc1)c1nn[nH]n1 [Example 228, (2S)-2-[(1S)-2-[4-(4-acetylpiperazin-1-yl)phenyl]-1-(2H-tetrazol-5-yl)ethyl]pentanoic acid] | 7.48 | 6.66 | 7.82 | 200 µM | 16 µM | 75 µM | – | – | – | – | – | – |
| CCC[C@H](C(=O)O)[C@H](Cc1ccc(N2CCC[C@@H](N)C2)cc1)c1nn[nH]n1 [Example 229, (2S)-2-[(1S)-2-{4-[(3R)-3-aminopiperidin-1-yl]phenyl}-1-(2H-tetrazol-5-yl)ethyl]pentanoic acid] | 6.43 | 5.92 | 7.60 | 25 µM | 25 µM | 12.5 µM | – | – | – | – | – | – |
| CCC[C@H](C(=O)O)[C@H](Cc1ccc(N2CCC[C@H](N)C2)cc1)c1nn[nH]n1 [Example 230, (2S)-2-[(1S)-2-{4-[(3S)-3-aminopiperidin-1-yl]phenyl}-1-(2H-tetrazol-5-yl)ethyl]pentanoic acid] | 6.52 | 5.96 | 7.60 | 25 µM | 25 µM | 31 µM | – | – | – | – | – | – |
| CCC[C@H](C(=O)O)[C@H](Cc1ccc(N2CCN(C)CC2)cc1)c1nn[nH]n1 [Example 231, (2S)-2-[(1S)-2-[4-(4-methylpiperazin-1-yl)phenyl]-1-(2H-tetrazol-5-yl)ethyl]pentanoic acid] | 6.80 | 6.35 | 7.16 | 50 µM | 18.8 µM | 18.8 µM | – | – | – | – | – | – |
| CCC[C@H](C(=O)O)[C@H](Cc1ccc(N2CCN3CCCC3C2)cc1)c1nn[nH]n1 (stereo partly drawn) [Example 232, (2S)-2-[(1S)-2-[4-(hexahydropyrrolo[1,2-a]pyrazin-2(1H)-yl)phenyl]-1-(2H-tetrazol-5-yl)ethyl]pentanoic acid] | 6.74 | 6.38 | 7.05 | 50 µM | 12.5 µM | 12.5 µM | – | – | – | – | – | – |
| CC(C)(C)[C@H](C(=O)O)[C@H](Cc1ccccc1)c1nnn[nH]1 [Example 258, (2R,3S)-2-(tert-butyl)-4-phenyl-3-(1H-tetrazol-5-yl)butanoic acid] | – | – | – | – | – | – | 7.04 | 7.46 | 7.00 | 100 µM | 2.3 µM | 11 µM |
| CCC[C@H](C(=O)O)[C@H](Cc1ccccc1F)c1nnn[nH]1 [Example 259, (S)-2-((S)-2-(2-fluorophenyl)-1-(1H-tetrazol-5-yl)ethyl)pentanoic acid] | – | – | – | – | – | – | 7.43 | 6.03 | 8.38 | 12.5 µM | 12.5 µM | 9.4 µM |
| CCC[C@H](C(=O)O)[C@H](Cc1cccc(F)c1)c1nnn[nH]1 [Example 260, (2S)-2-[(1S)-2-(3-fluorophenyl)-1-(1H-tetrazol-5-yl)ethyl]pentanoic acid] | – | – | – | – | – | – | 7.12 | 6.06 | 8.43 | 18.8 µM | 12.5 µM | 6.2 µM |
| CCC[C@H](C(=O)O)[C@H](Cc1ccc(F)cc1)c1nnn[nH]1 [Example 261, (2S)-2-[(1S)-2-(4-fluorophenyl)-1-(1H-tetrazol-5-yl)ethyl]pentanoic acid] | – | – | – | – | – | – | 6.96 | 6.04 | 8.42 | 12.5 µM | 12.5 µM | 9.4 µM |
